The source of these data is patent US7598244B2, “[1,2,4]triazolo[1,5,a]pyrimidin-2-ylurea derivative and use thereof” (Nippon Kayaku Kabushiki Kaisha, priority 2003, dated 2009).

For assay [1], the system named is MHC class I molecules of T1 cells (human lymphoma cell line 174×CEM.). As to the kind of experiment: Effect on expression of MHC class I from T1 cells (flow cytometry, MFI). It counts as cell-based. Particulars: 3 days culture. The method in brief: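 EC20 is the compound level that lowers MHC class I MFI by 20% relative to compound-free cultures. Read-out was flow cytometry after FITC W6/32 staining.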

For a further assay, the system named is mouse splenic cells. As to the kind of experiment: Inhibitory action on blastogenesis of mouse splenic cells ([3H]-thymidine incorporation). It counts as cell-based. Particulars: 72 hours. The procedure: Inhibitory Action on Blastogenesis of Mouse Splenic Cells
The spleen was excised from each of BALB/c mice (Charles River Japan; female; 10-week-old), and it was allowed to pass through a mesh to obtain a single cell suspension. This single cell suspension was prepared to be 1.0×10^6 cells/ml. Thereafter, 200 μl of the suspension was fractionated into each well of a 96-well plate. Thereafter, as blastogenic stimulation, 5 μg/ml concanavalin A (Pharmacia) or 25 μg/ml Escherichia coli-derived lipopolysaccharide (DIFCO) was added to the well, and then, a solution containing a test compound with each different concentration was further added thereto at an amount of 20 μl/well. The obtained mixture was cultured at 37° C. for 72 hours in an incubator containing 5% carbon dioxide. Thereafter, a 1 μCi/10 μl/well [^3H]-thymidine solution was added thereto 64 hours after initiation of the culture. After completion of the culture (72 hours later), the cells were captured on a filter using a cell harvester, and they were then dried. Thereafter, scintillator was added thereto, and the radioactivity of [^3H]-thymidine incorporated into the cells was then measured using a liquid scintillation counter. The inhibition rate of the DNA synthesis was calculated using the aforementioned formula (3). Thereafter, the concentration of a test compound necessary for inhibition of 50% (IC50 value) was obtained.
For orientation: Dividing cells build labelled thymidine or BrdU into new DNA.

The subject of assay [2] is MHC class I molecules of human peripheral blood-derived dendritic cells. Description: Effect on expression of MHC class I molecules from human peripheral blood-derived dendritic cells. Particulars: dendritic cells matured with TNF-α, 3 days; read-out: EC50 (reduction of 50% of the number of cells wherein MHC class I molecules were highly expressed). The class given is cell-based. An excerpt: Effect on Expression of MHC Class I Molecules from Human Peripheral Blood-Derived Dendritic Cells
Monocytes were isolated from human peripheral blood by the specific gravity centrifugation method. Thereafter, using mouse anti-human CD14 antibody-binding microbeads and a magnetic cell separation system (Miltenyi Biotec), CD14 positive cells were separated from the peripheral blood monocytes. The separated CD14 positive cells were suspended in an RPMI 1640 medium containing 10% FBS, and the suspension was then inoculated in a 6-well plate, resulting in a concentration of 1.0×10^6 cells/well. It was cultured at 37° C. for 20 minutes in an incubator containing 5% carbon dioxide. […] Thereafter, RPMI 1640 containing a 500 U/ml human recombinant […] (hereinafter referred to as GM-CSF; Anapure Bioscientific), 50 ng/ml human recombinant interleukin 4 (hereinafter referred to as IL-4; Pepro Tech), and 10% FBS, was added to the remaining suspension at a concentration of 2 ml/well. The obtained mixture was then cultured at 37° C. in an incubator containing 5% carbon dioxide. When adhesive CD14 positive cells are cultured in the presence of GM-CSF and IL-4, the CD14 positive cells were differentiated into non-adhesive immature dendritic cells. After the cells had been cultured for 7 days, non-adhesive cells were recovered to obtain immature dendritic cells. Using a 6-well plate, the immature dendritic cells (2.5×10^5 cells/well) were cultured in RPMI 1640 containing a 100 U/ml human recombinant tumor necrosis factor-α (hereinafter referred to as TNF-a; Pepro Tech), a test compound, and 10% FBS, at 37° C. for 3 days in an incubator containing 5% carbon dioxide. The dendritic cells became mature as a result of the presence of TNF-α, but in the present test, a test compound was allowed to simultaneously act on the cells. The mature dendritic cells were then stained with fluoroisothiocyanate-labeled mouse anti-human MHC class I monoclonal antibody (an antibody generated from the cell line W6/32 (ATCC No. CRL 1991)). The rate of the number of cells wherein MHC class I molecules were highly expressed to the total number of cells was measured by flow cytometry. The reduction rate of the number of cells wherein MHC class I molecules were highly expressed was calculated using the following formula (2), and the concentrations of test compounds necessary for reduction of 50% (EC50 values) were obtained.
[formula] • Eexp: (The number of cells, wherein MHC class I molecules are highly expressed, in cultured cells containing test compound)/(the total number of cells) • Cexp: (The number of cells, wherein MHC class I molecules are highly expressed, in cultured cells containing no test compounds)/(the total number of cells)

Assay [3] has as its system human dendritic cells cultured with human allogenic T cells. Description: Effect on the ability of human dendritic cells to induce the growth of allogenic T cells ([3H]-thymidine incorporation). The class given is cell-based. Particulars: dendritic cells treated 3 days with test compound and TNF-α, then 5 days with allogenic T cells, read-out: IC50 (inhibition of DNA synthesis of lymphocytes). The procedure: Effect on the Ability of Human Dendritic Cells to Induce the Growth of Allogenic T Cells
Immature dendritic cells were cultured with a test compound and TNF-α for 3 days by the same method as that described in Test Example 2. The obtained dendritic cells (2.5×10^3 cells/50 μl/well) were cultured together with human allogenic T cells (2.0×10^5 cells/150 μl/well) in a 96-well flat bottom plate at 37° C. for 5 days in an incubator containing 5% carbon dioxide. Thereafter, [^3H]-thymidine (Amersham Pharmacia Biotech) was added thereto at an amount of 1 μCi/10 μl/well, 16 hours before completion of the culture. After completion of the culture, cells were captured on a glass filter using a cell harvester (Skatron Instrument) and then dried. Thereafter, Scintillator ACS-II (Amersham Pharmacia Biotech) was added thereto, and the radioactivity of [^3H]-thymidine incorporated into the cells were then measured using a liquid scintillation counter. The inhibition rate of the DNA synthesis of lymphocytes was calculated using the following formula (3). Thereafter, the concentration of a test compound necessary for inhibition of 50% (IC50 value) was obtained.
[formula] • Eexp: The amount of [^3H]-thymidine incorporated into cultured cells containing test compound • Cexp: The amount of [^3H]-thymidine incorporated into cultured cells containing no test compounds

For assay [4], the system named is (C57BL/6XB6. C—H2^bml) F1 mice. As to the kind of experiment: Life-lengthening effect on graft versus host disease (GVHD). It counts as in vivo, mouse. Particulars: oral, once a day. The procedure: Life-Lengthening Effect on Graft Versus Host Disease (GVHD)
The present test was carried out by modification of the method of Jonathan et al. (Jonathan et al., Blood, p. 93 (1999)). First, 6.0 Gy X-ray was applied to (C57BL/6XB6. C—H2^bml) F1 mice (produced by mating 6XB6.C—H2^bml mice (Jackson Laboratory) with C57BL/6 mice (Charles River Japan); female; 8 to 12-week-old). Thereafter, CD8 positive T cells (1.25×10^6 cells) prepared from the splenic cells of C57BL/6 mice (Charles River Japan; female; 8-week-old) were intravenously injected into the above (C57BL/6XB6. C—H2^bml) F1 mice. From the day before the injection, the test compound having each diluted concentration or 0.5% carboxymethyl cellulose used as a solvent was orally administered to the mice once a day for 7 to 30 consecutive days. The day on which the transplantation was conducted was defined as day 0. Based on the median of the survival days of each group, the prolongation rate of such survival dates was calculated using the following formula (7). Thus, the effect of the test compound on GVHD was analyzed.
[formula] • Eexp: Median of survival days of test compound administration group • Cexp: Median of survival days of solvent administration group

[5] abbreviates: Mus musculus, Lymphocyte, 5 μg/ml concanavalin A, read-out: Lymphocyte blastogenesis IC50 (μM), ConA stimulation.
The mark [6] stands for this setting: Mus musculus, Lymphocyte, 25 μg/ml Escherichia coli-derived lipopolysaccharide, read-out: Lymphocyte blastogenesis IC50 (μM), LPS stimulation.
Setting [7] is: 100 mg/kg/single administration.
Setting [8] is: 5 μg/ml concanavalin A, read-out: Lymphocyte blastogenesis IC50 (μM), ConA stimulation.
The mark [9] stands for this setting: 25 μg/ml Escherichia coli-derived lipopolysaccharide, read-out: Lymphocyte blastogenesis IC50 (μM), LPS stimulation.

Structures are written as SMILES. Like-named read-outs stand apart in the source and are kept apart here.

The term IC50 denotes the point on the concentration scale where inhibition reaches its midpoint. A word on the EC50: it is the concentration at which the effect is half-maximal. In the case of `COc1ccc(-c2ccnc3nc(NC(=O)N[C@@H](C)c4ccccc4)nn23)cc1` [Example 101], the “EC20 (concentration necessary for suppressing 20% of the expression level of MHC class I molecules)” value in assay [1] is 0.21 µM. Also, the values for the half-maximal inhibitory concentration (IC50) (with mouse splenic cells (setting [5]); in the assay with mouse splenic cells (setting [6]); in assay [3] (Homo sapiens)) were 0.58 µM, 0.18 µM and 625 nM, respectively. In assay [2], the half-maximal effective concentration (EC50) is 220 nM.

Take `COc1ccc(-c2ccnc3nc(NC(=O)N[C@@H](C)CCCC(C)(C)O)nn23)cc1` [Example 319, (S)-1-(5-hydroxy-1,5-dimethylhexyl)-3-[7-(4-methoxyphenyl)-[1,2,4]triazolo[1,5-a]pyrimidin-2-yl]urea]: the “EC20 (concentration necessary for suppressing 20% of the expression level of MHC class I molecules)” value in assay [1] amounted to 0.02 µM. For the same compound, the “Lengthening rate of survival days (%)” value in assay [4] (10 mg/kg/single administration) and in assay [4] (50 mg/kg/single administration) was 200% throughout.

As for `CCOCCC(C)NC(=O)Nc1nc2nccc(-c3ccc(OC)cc3)n2n1` (stereo not drawn) [Example 274], the “EC20 (concentration necessary for suppressing 20% of the expression level of MHC class I molecules)” value in assay [1] was found to be 0.11 µM. Moreover, the “Lengthening rate of survival days (%)” value in assay [4] (setting [7]) stood at 55%.

`COc1ccc(-c2ccnc3nc(NC(=O)NC(C)CCC(C)(C)O)nn23)cc1` (racemic) [Example 317, (±)-1-(4-hydroxy-1,4-dimethylpentyl)-3-[7-(4-methoxyphenyl)-[1,2,4]triazolo[1,5-a]pyrimidin-2-yl]urea]: the “EC20 (concentration necessary for suppressing 20% of the expression level of MHC class I molecules)” value in assay [1] turned out to be 0.06 µM. For the same compound, in assay [4] (30 mg/kg/single administration), the “Lengthening rate of survival days (%)” value is 24%.

On to `CC(C)NC(=O)Nc1nc2nccc(-c3cccc(OCCC4OCCCO4)c3)n2n1` [Example 183], for which, in assay [1], the “EC20 (concentration necessary for suppressing 20% of the expression level of MHC class I molecules)” value stood at 0.22 µM. In addition, the IC50 in the assay on mouse splenic cells (setting [8]) came out at 0.55 µM; in the assay on mouse splenic cells (setting [9]), 0.14 µM.

With `COc1cccc([C@H](C)NC(=O)Nc2nc3nccc(-c4ccc5c(c4)OCO5)n3n2)c1` [Example 300, (S)-1-[1-(3-methoxyphenyl)ethyl]-3-[7-(3,4-methylenedioxyphenyl)-[1,2,4]triazolo[1,5-a]pyrimidin-2-yl]urea], the “EC20 (concentration necessary for suppressing 20% of the expression level of MHC class I molecules)” value in assay [1] was found to be 0.019 µM. Further, the “Lengthening rate of survival days (%)” value in assay [4] (10 mg/kg/single administration) was 100%.

`CC(C)NC(=O)Nc1nc2nccc(-c3cccc(OCC4CCCO4)c3)n2n1` (stereo not drawn) [Example 184]: in assay [1], the “EC20 (concentration necessary for suppressing 20% of the expression level of MHC class I molecules)” value turned out to be 0.21 µM. Also, the half-inhibitory concentration (IC50) was found to be 0.63 µM in the assay on mouse splenic cells (setting [8]) and 0.29 µM in the assay on mouse splenic cells (setting [9]).

Turning to `COc1ccc(-c2ccnc3nc(NC(=O)N[C@@H](C)CCCC(C)C)nn23)cc1` [Example 160], the “EC20 (concentration necessary for suppressing 20% of the expression level of MHC class I molecules)” value in assay [1] was found to be 0.014 µM. Moreover, the IC50 in the assay on mouse splenic cells (setting [8]) is 0.07 µM; in the assay with mouse splenic cells (setting [9]), 0.04 µM; in assay [3], 156 nM.

Take `COc1ccc(-c2ccnc3nc(NC(=O)NC(C(=O)OC(C)(C)C)C(C)C)nn23)cc1` (stereo not drawn) [Example 045]: in assay [1], the “EC20 (concentration necessary for suppressing 20% of the expression level of MHC class I molecules)” value is 0.03 µM. In addition, the figures for the IC50 (in the assay with mouse splenic cells (setting [5]); in the assay with mouse splenic cells (setting [6]); in assay [3] (Homo sapiens)) were 0.41 µM, 0.09 µM and 280 nM, respectively. Also, the EC50 in assay [2] was found to be 120 nM.

Consider `COc1ccc(-c2ccnc3nc(NC(=O)N[C@@H](C)c4cccc(OC)c4)nn23)cc1` [Example 132], for which the “EC20 (concentration necessary for suppressing 20% of the expression level of MHC class I molecules)” value in assay [1] worked out at 0.039 µM. Also, the 50% inhibitory concentration (IC50) worked out at 0.08 µM with mouse splenic cells (setting [8]), 0.06 µM with mouse splenic cells (setting [9]) and 625 nM in assay [3]. Besides, the “Lengthening rate of survival days (%)” value in assay [4] (setting [7]) was 200%.

Regarding `COc1ccc(-c2ccnc3nc(NC(=O)NC(C)CCCC(C)(C)O)nn23)cc1` (racemic) [Example 219], the “EC20 (concentration necessary for suppressing 20% of the expression level of MHC class I molecules)” value in assay [1] amounted to 0.05 µM. Further, in assay [4] (25 mg/kg/single administration), the “Lengthening rate of survival days (%)” value is 200%.
